The source of these data is US20080311126A1, “Antisense Oligonucleotides Directed to Ribonucleotide Reducatase R2 and Uses Thereof in Combination Therapies for the Treatment of Cancer” (Genesense Technologies, Inc, priority 2004, published 2008).

Oligonucleotides are written 5' to 3', each unit as a sugar letter and its base; * is a phosphorothioate linkage, no mark a phosphodiester; rarer units and linkages stand in square brackets, end groups in braces. Plain capitals give the bases only. d = 2'-deoxy (DNA)

Holding throughout (assay): Relative colony forming efficiency (Example 17, Table 13)
Holding throughout (assay type): cell-based, human

Data set [1] relates to T24 bladder cell carcinoma. Particulars: averages of 2-8 determinations. As for the experimental part: (§1) Colony forming efficiency was determined using standard protocols. […] The test oligonucleotides were added to cell cultures in the presence of 2.5 μg of DOTMA/DOPE (Lipofectin; Life Technologies, Inc.) for four hours. The oligonucleotide was tested at 0.2 μM unless otherwise indicated. Controls were the cultures treated with lipofectin but without the oligonucleotide. […] Surviving cells were visualized by methylene blue staining, and colonies were scored. In some experiments cell aliquots were removed from the culture and viability was determined using the trypan blue exclusion test. Results were analyzed as percent of surviving cells compared to control cells. To test the antisense effects of many of these sequences as phosphorthioate deoxyribonucleotides, they were examined in relative colony forming experiments conducted as described in Example 16 with a series of human tumour cell lines. The results (shown as % inhibition of colony forming ability) obtained with cancer cells derived from the bladder, breast, lung, colon, pancreas, prostate, liver and cervix, are shown in Table 13. The specific cell lines employed are as follows: […]

Data set [2] has as its system MDA PaCa-2 pancreatic cell carcinoma. Conditions: MIA PaCa-2 pancreatic cell carcinoma; averages of 2-8 determinations. As for the experimental part:
as §1

A further data set concerns A549 lung cell carcinoma. Conditions: averages of 2-8 determinations. On the procedure:
as §1

The subject of data set [3] is MDA-MB-231 breast cell adenocarcinoma. Conditions: averages of 2-8 determinations. On the procedure: as §1
The test system of data set [4] is PC-3 prostrate cell adenocarcinoma. Conditions: averages of 2-8 determinations. On the procedure: as §1
In data set [5] the test system is HepG2 hepatocellular carcinoma. Particulars: averages of 2-8 determinations. As for the experimental part: as §1
For data set [6], the system named is HCT116 colon cell carcinoma. Particulars: averages of 2-8 determinations. As for the experimental part: as §1

Consider “AAACGGCTTCTCACACATAT (antisense dA*dA*dA*dC*dG*dG*dC*dT*dT*dC*dT*dC*dA*dC*dA*dC*dA*dT*dA*dT) [AS-II-2151-20]”, for which the “Reduced relative colony forming efficiency, T24 (% inhibition of colony forming ability)” value in data set [1] is on record as 79.83%. In data set [2], the “Reduced relative colony forming efficiency, MIA PaCa-2 (% inhibition of colony forming ability)” value was found to be 62.15%. Further, the “Reduced relative colony forming efficiency, A549 (% inhibition of colony forming ability)” value in the data set on A549 lung cell carcinoma was 79.19%. In data set [3], the “Reduced relative colony forming efficiency, MDA-MB-231 (% inhibition of colony forming ability)” value is reported as 95.14%. Moreover, in data set [4], the “Reduced relative colony forming efficiency, PC-3 (% inhibition of colony forming ability)” value is recorded as 84.86%.
Regarding “AACCGGAAAAGAAAATGCCT (antisense dA*dA*dC*dC*dG*dG*dA*dA*dA*dA*dG*dA*dA*dA*dA*dT*dG*dC*dC*dT) [AS-II-890-20]”, the “Reduced relative colony forming efficiency, T24 (% inhibition of colony forming ability)” value in data set [1] worked out at 82.07%. The “Reduced relative colony forming efficiency, MIA PaCa-2 (% inhibition of colony forming ability)” value in data set [2] came out at 66.02%. Further, the “Reduced relative colony forming efficiency, A549 (% inhibition of colony forming ability)” value in the data set on A549 lung cell carcinoma is 81.6%. Besides, the “Reduced relative colony forming efficiency, MDA-MB-231 (% inhibition of colony forming ability)” value in data set [3] is listed as 88.2%. Moreover, the “Reduced relative colony forming efficiency, PC-3 (% inhibition of colony forming ability)” value in data set [4] was found to be 87.93%.
For “ATTAAAATCTGCGTTGAAGC (antisense dA*dT*dT*dA*dA*dA*dA*dT*dC*dT*dG*dC*dG*dT*dT*dG*dA*dA*dG*dC) [AS-II-1700-20]”, in that order: 70.94%, 34.52%, 77.28%, 30.75% and 90.63%.
For the sequence “CAGAATATCGACGCAAAAGA (dC*dA*dG*dA*dA*dT*dA*dT*dC*dG*dA*dC*dG*dC*dA*dA*dA*dA*dG*dA) [AS-II-909-20]”, in data set [1], the “Reduced relative colony forming efficiency, T24 (% inhibition of colony forming ability)” value was determined as 78.57%. In data set [2], the “Reduced relative colony forming efficiency, MIA PaCa-2 (% inhibition of colony forming ability)” value stood at 46.13%. Moreover, the “Reduced relative colony forming efficiency, A549 (% inhibition of colony forming ability)” value in the data set on A549 lung cell carcinoma is given as 78.68%. In addition, in data set [3], the “Reduced relative colony forming efficiency, MDA-MB-231 (% inhibition of colony forming ability)” value was 45.96%. For the same sequence, the “Reduced relative colony forming efficiency, PC-3 (% inhibition of colony forming ability)” value in data set [4] turned out to be 84.86%.
With “GGCCCAGATCACCCCTAAAT (antisense dG*dG*dC*dC*dC*dA*dG*dA*dT*dC*dA*dC*dC*dC*dC*dT*dA*dA*dA*dT) [AS-II-2128-20]”, in data set [1], the “Reduced relative colony forming efficiency, T24 (% inhibition of colony forming ability)” value worked out at 83.74%. In addition, the “Reduced relative colony forming efficiency, MIA PaCa-2 (% inhibition of colony forming ability)” value in data set [2] came to 39.23%. Moreover, the “Reduced relative colony forming efficiency, A549 (% inhibition of colony forming ability)” value with A549 lung cell carcinoma stood at 87.31%. Moreover, the “Reduced relative colony forming efficiency, MDA-MB-231 (% inhibition of colony forming ability)” value in data set [3] is recorded as 91.3%. Further, the “Reduced relative colony forming efficiency, PC-3 (% inhibition of colony forming ability)” value in data set [4] is reported as 88.89%.
As for “TATCGCCGCCGTGAGTACAA (antisense dT*dA*dT*dC*dG*dC*dC*dG*dC*dC*dG*dT*dG*dA*dG*dT*dA*dC*dA*dA) [AS-II-1768-20]”, the “Reduced relative colony forming efficiency, T24 (% inhibition of colony forming ability)” value in data set [1] stood at 74.56%. For the same sequence, the “Reduced relative colony forming efficiency, MIA PaCa-2 (% inhibition of colony forming ability)” value in data set [2] amounted to 60.36%. For the same sequence, the “Reduced relative colony forming efficiency, A549 (% inhibition of colony forming ability)” value in the data set on A549 lung cell carcinoma was 86.8%. For the same sequence, the “Reduced relative colony forming efficiency, MDA-MB-231 (% inhibition of colony forming ability)” value in data set [3] was found to be 91.56%. In addition, the “Reduced relative colony forming efficiency, PC-3 (% inhibition of colony forming ability)” value in data set [4] was 86.36%.
Regarding “TCAGCATCCAAGGTAAAAGA (antisense dT*dC*dA*dG*dC*dA*dT*dC*dC*dA*dA*dG*dG*dT*dA*dA*dA*dA*dG*dA) [AS-II-1338-20]”, the “Reduced relative colony forming efficiency, T24 (% inhibition of colony forming ability)” value in data set [1] worked out at 63.16%. Also, the “Reduced relative colony forming efficiency, MIA PaCa-2 (% inhibition of colony forming ability)” value in data set [2] is listed as 79.17%. The “Reduced relative colony forming efficiency, A549 (% inhibition of colony forming ability)” value in the data set on A549 lung cell carcinoma was determined as 63.93%. In data set [5], the “Reduced relative colony forming efficiency, HepG2 (% inhibition of colony forming ability)” value was found to be 80.41%. For the same sequence, the “Reduced relative colony forming efficiency, PC-3 (% inhibition of colony forming ability)” value in data set [4] stood at 93.75%. In data set [6], the “Reduced relative colony forming efficiency, HCT116 (% inhibition of colony forming ability)” value is reported as 74.73%.
Take “TCGCCTACTCTCTTCTCAAA (antisense dT*dC*dG*dC*dC*dT*dA*dC*dT*dC*dT*dC*dT*dT*dC*dT*dC*dA*dA*dA) [AS-II-1278-20]”: the “Reduced relative colony forming efficiency, T24 (% inhibition of colony forming ability)” value in data set [1] amounted to 65.42%. For the same sequence, the “Reduced relative colony forming efficiency, MIA PaCa-2 (% inhibition of colony forming ability)” value in data set [2] is 57.05%. Moreover, the “Reduced relative colony forming efficiency, MDA-MB-231 (% inhibition of colony forming ability)” value in data set [3] came out at 90.68%. Moreover, the “Reduced relative colony forming efficiency, PC-3 (% inhibition of colony forming ability)” value in data set [4] was 85.31%.
For “TGGCACCAACTGACTAATAT (antisense dT*dG*dG*dC*dA*dC*dC*dA*dA*dC*dT*dG*dA*dC*dT*dA*dA*dT*dA*dT) [AS-II-1976-20]”, in data set [3], the “Reduced relative colony forming efficiency, MDA-MB-231 (% inhibition of colony forming ability)” value is listed as 89.6%. In addition, the “Reduced relative colony forming efficiency, PC-3 (% inhibition of colony forming ability)” value in data set [4] is listed as 88.16%.
Turning to “TGGCTGTGCTGGTTAAAGGA (antisense dT*dG*dG*dC*dT*dG*dT*dG*dC*dT*dG*dG*dT*dT*dA*dA*dA*dG*dG*dA) [AS-II-1659-20]”, the “Reduced relative colony forming efficiency, T24 (% inhibition of colony forming ability)” value in data set [1] was determined as 74.09%. Also, the “Reduced relative colony forming efficiency, MIA PaCa-2 (% inhibition of colony forming ability)” value in data set [2] turned out to be 42.54%. For the same sequence, the “Reduced relative colony forming efficiency, A549 (% inhibition of colony forming ability)” value in the data set on A549 lung cell carcinoma worked out at 54.7%. Also, the “Reduced relative colony forming efficiency, MDA-MB-231 (% inhibition of colony forming ability)” value in data set [3] was 42.86%. For the same sequence, the “Reduced relative colony forming efficiency, PC-3 (% inhibition of colony forming ability)” value in data set [4] is 81.56%.
For “TTCATGGTGTGGCTAGTTGG (antisense dT*dT*dC*dA*dT*dG*dG*dT*dG*dT*dG*dG*dC*dT*dA*dG*dT*dT*dG*dG) [AS-II-1438-20]”, in that order: 43.7%, 42.13%, 51.27%, 69.06% and 83.96%.
Consider “TTCTGGCAAAAGGTGATACT (antisense dT*dT*dC*dT*dG*dG*dC*dA*dA*dA*dA*dG*dG*dT*dG*dA*dT*dA*dC*dT) [AS-II-1538-20]”, for which the “Reduced relative colony forming efficiency, T24 (% inhibition of colony forming ability)” value in data set [1] is listed as 67.29%. For the same sequence, the “Reduced relative colony forming efficiency, MIA PaCa-2 (% inhibition of colony forming ability)” value in data set [2] came out at 50.62%. The “Reduced relative colony forming efficiency, A549 (% inhibition of colony forming ability)” value in the data set with A549 lung cell carcinoma worked out at 90.34%. Moreover, in data set [5], the “Reduced relative colony forming efficiency, HepG2 (% inhibition of colony forming ability)” value came to 96.84%. Also, the “Reduced relative colony forming efficiency, PC-3 (% inhibition of colony forming ability)” value in data set [4] was 84.71%. Besides, the “Reduced relative colony forming efficiency, HCT116 (% inhibition of colony forming ability)” value in data set [6] is 51.28%.
With “TTTTAACTGGCTGTGCTGGT (antisense dT*dT*dT*dT*dA*dA*dC*dT*dG*dG*dC*dT*dG*dT*dG*dC*dT*dG*dG*dT) [AS-II-1666-20]”, the “Reduced relative colony forming efficiency, T24 (% inhibition of colony forming ability)” value in data set [1] was found to be 71.71%. Besides, the “Reduced relative colony forming efficiency, MIA PaCa-2 (% inhibition of colony forming ability)” value in data set [2] is listed as 49.72%. Also, in the data set on A549 lung cell carcinoma, the “Reduced relative colony forming efficiency, A549 (% inhibition of colony forming ability)” value is on record as 54.82%. For the same sequence, the “Reduced relative colony forming efficiency, MDA-MB-231 (% inhibition of colony forming ability)” value in data set [3] came out at 26.71%. For the same sequence, the “Reduced relative colony forming efficiency, PC-3 (% inhibition of colony forming ability)” value in data set [4] was found to be 86.06%.
